Numbers after ± are expanded uncertainties.
What was measured:
[1] = refractive index (Na D-line) (dimensionless); settings: 298.15 K; 101.33 kPa; Liquid; refractometer
[2] = molar heat capacity at constant pressure; settings: 298.15 K; 101.33 kPa; Liquid; Flow calorimetry
[3] = 298.15 K; 101.33 kPa; Liquid; Vibrating tube method
[4] = xn = mol fraction of the nth substance listed; settings: 298.15 K, 101 kPa, Liquid, Vibrating tube method
[5] = excess molar enthalpy (molar enthalpy of mixing); xn = mol fraction of the nth substance listed; settings: 298.15 K, 101 kPa, Liquid, Flow calorimetry
[6] = refractive index (Na D-line) (dimensionless); xn = mol fraction of the nth substance listed; settings: 298.15 K, 101 kPa, Liquid, refractometer
[7] = heat capacity at constant pressure per volume; xn = mol fraction of the nth substance listed; settings: 298.15 K, 101 kPa, Liquid, Flow calorimetry

C1CCOCC1 [tetrahydropyran]
Settings | mass density [kg/m3] | molar heat capacity at constant pressure [J/K/mol] | refractive index
[1] | – | – | 1.41865
[2] | – | 149.32 | –
[3] | 878.91 | – | –

CCCCCC(C)=O [2-heptanone] + C1CCOCC1
Settings | excess molar enthalpy [kcal/mol] | heat capacity [J/K/m3] | mass density [kg/m3] | refractive index
[4], x2 = 0.0796 | – | – | 814.73 ± 0.81 | –
[4], x2 = 0.1679 | – | – | 819.18 ± 0.77 | –
[4], x2 = 0.2235 | – | – | 822.12 ± 0.75 | –
[4], x2 = 0.3185 | – | – | 827.4 ± 0.72 | –
[4], x2 = 0.3518 | – | – | 829.33 ± 0.7 | –
[4], x2 = 0.4045 | – | – | 832.49 ± 0.68 | –
[4], x2 = 0.4377 | – | – | 834.53 ± 0.67 | –
[4], x2 = 0.4617 | – | – | 836.04 ± 0.66 | –
[4], x2 = 0.5166 | – | – | 839.61 ± 0.64 | –
[4], x2 = 0.5455 | – | – | 841.54 ± 0.63 | –
[4], x2 = 0.5907 | – | – | 844.65 ± 0.61 | –
[4], x2 = 0.6312 | – | – | 847.53 ± 0.6 | –
[4], x2 = 0.6667 | – | – | 850.14 ± 0.58 | –
[4], x2 = 0.7077 | – | – | 853.23 ± 0.57 | –
[4], x2 = 0.7101 | – | – | 853.42 ± 0.57 | –
[4], x2 = 0.7907 | – | – | 859.84 ± 0.54 | –
[4], x2 = 0.8696 | – | – | 866.59 ± 0.5 | –
[4], x2 = 0.9539 | – | – | 874.37 ± 0.47 | –
[5], x2 = 0.1 | 0.00354 ± 0.000215 | – | – | –
[5], x2 = 0.15 | 0.0053 ± 0.000232 | – | – | –
[5], x2 = 0.2 | 0.00696 ± 0.000239 | – | – | –
[5], x2 = 0.25 | 0.0082 ± 0.000263 | – | – | –
[5], x2 = 0.3 | 0.00946 ± 0.000263 | – | – | –
[5], x2 = 0.35 | 0.0106 ± 0.000263 | – | – | –
[5], x2 = 0.4 | 0.0118 ± 0.000287 | – | – | –
[5], x2 = 0.45 | 0.0129 ± 0.000287 | – | – | –
[5], x2 = 0.5 | 0.0138 ± 0.000287 | – | – | –
[5], x2 = 0.55 | 0.0144 ± 0.000311 | – | – | –
[5], x2 = 0.6 | 0.0147 ± 0.000311 | – | – | –
[5], x2 = 0.65 | 0.0146 ± 0.000311 | – | – | –
[5], x2 = 0.7 | 0.0142 ± 0.000287 | – | – | –
[5], x2 = 0.75 | 0.0134 ± 0.000287 | – | – | –
[5], x2 = 0.8 | 0.012 ± 0.000287 | – | – | –
[5], x2 = 0.85 | 0.0103 ± 0.000263 | – | – | –
[5], x2 = 0.9 | 0.00793 ± 0.000263 | – | – | –
[6], x2 = 0.0855 | – | – | – | 1.4075 ± 0.00039
[6], x2 = 0.1588 | – | – | – | 1.4081 ± 0.00037
[6], x2 = 0.2375 | – | – | – | 1.40879 ± 0.00036
[6], x2 = 0.3113 | – | – | – | 1.40947 ± 0.00034
[6], x2 = 0.3532 | – | – | – | 1.40988 ± 0.00033
[6], x2 = 0.3936 | – | – | – | 1.41029 ± 0.00033
[6], x2 = 0.4287 | – | – | – | 1.41065 ± 0.00032
[6], x2 = 0.4658 | – | – | – | 1.41105 ± 0.00031
[6], x2 = 0.5486 | – | – | – | 1.41198 ± 0.0003
[6], x2 = 0.5896 | – | – | – | 1.41246 ± 0.00029
[6], x2 = 0.6261 | – | – | – | 1.41291 ± 0.00028
[6], x2 = 0.6665 | – | – | – | 1.41343 ± 0.00027
[6], x2 = 0.7046 | – | – | – | 1.41393 ± 0.00026
[6], x2 = 0.7855 | – | – | – | 1.41507 ± 0.00025
[6], x2 = 0.8677 | – | – | – | 1.41633 ± 0.00023
[6], x2 = 0.9473 | – | – | – | 1.41768 ± 0.00022
[7], x2 = 0.0687 | – | 1711900 ± 2700 | – | –
[7], x2 = 0.1469 | – | 1699600 ± 2600 | – | –
[7], x2 = 0.2226 | – | 1687400 ± 2600 | – | –
[7], x2 = 0.3113 | – | 1672200 ± 2600 | – | –
[7], x2 = 0.3855 | – | 1659100 ± 2600 | – | –
[7], x2 = 0.4613 | – | 1645000 ± 2500 | – | –
[7], x2 = 0.5449 | – | 1628000 ± 2500 | – | –
[7], x2 = 0.6288 | – | 1610700 ± 2500 | – | –
[7], x2 = 0.7034 | – | 1594700 ± 2500 | – | –
[7], x2 = 0.7801 | – | 1576700 ± 2400 | – | –
[7], x2 = 0.8581 | – | 1558500 ± 2400 | – | –
[7], x2 = 0.9388 | – | 1538500 ± 2400 | – | –

O=C1CCCCC1 [cyclohexanone] + C1CCOCC1
[5]
Settings | excess molar enthalpy [kcal/mol]
x2 = 0.1 | 0.00647 ± 0.000239
x2 = 0.15 | 0.00919 ± 0.000263
x2 = 0.2 | 0.0117 ± 0.000287
x2 = 0.25 | 0.0139 ± 0.000287
x2 = 0.3 | 0.016 ± 0.000311
x2 = 0.35 | 0.0176 ± 0.000335
x2 = 0.4 | 0.0189 ± 0.000335
x2 = 0.45 | 0.0198 ± 0.000335
x2 = 0.5 | 0.0207 ± 0.000335
x2 = 0.55 | 0.0214 ± 0.000359
x2 = 0.6 | 0.0215 ± 0.000359
x2 = 0.65 | 0.0209 ± 0.000359
x2 = 0.7 | 0.0199 ± 0.000335
x2 = 0.75 | 0.0184 ± 0.000335
x2 = 0.8 | 0.0164 ± 0.000311
x2 = 0.85 | 0.0137 ± 0.000311
x2 = 0.9 | 0.01 ± 0.000263

CCCC(C)=O [pentan-2-one] + C1CCOCC1
Settings | excess molar enthalpy [kcal/mol] | heat capacity [J/K/m3] | mass density [kg/m3] | refractive index
[4], x2 = 0.0708 | – | – | 806.39 ± 0.42 | –
[4], x2 = 0.1523 | – | – | 812.26 ± 0.43 | –
[4], x2 = 0.2361 | – | – | 818.39 ± 0.43 | –
[4], x2 = 0.3015 | – | – | 823.22 ± 0.43 | –
[4], x2 = 0.3529 | – | – | 827.06 ± 0.43 | –
[4], x2 = 0.3858 | – | – | 829.54 ± 0.43 | –
[4], x2 = 0.4384 | – | – | 833.53 ± 0.43 | –
[4], x2 = 0.4683 | – | – | 835.82 ± 0.44 | –
[4], x2 = 0.5046 | – | – | 838.6 ± 0.44 | –
[4], x2 = 0.5548 | – | – | 842.49 ± 0.44 | –
[4], x2 = 0.5825 | – | – | 844.66 ± 0.44 | –
[4], x2 = 0.6397 | – | – | 849.17 ± 0.44 | –
[4], x2 = 0.6747 | – | – | 851.95 ± 0.44 | –
[4], x2 = 0.7079 | – | – | 854.61 ± 0.44 | –
[4], x2 = 0.7776 | – | – | 860.26 ± 0.45 | –
[4], x2 = 0.8646 | – | – | 867.44 ± 0.45 | –
[4], x2 = 0.9428 | – | – | 874.02 ± 0.45 | –
[5], x2 = 0.1 | 0.00636 ± 0.000239 | – | – | –
[5], x2 = 0.15 | 0.0092 ± 0.000263 | – | – | –
[5], x2 = 0.2 | 0.0119 ± 0.000287 | – | – | –
[5], x2 = 0.25 | 0.0144 ± 0.000311 | – | – | –
[5], x2 = 0.3 | 0.0164 ± 0.000311 | – | – | –
[5], x2 = 0.35 | 0.0182 ± 0.000335 | – | – | –
[5], x2 = 0.4 | 0.0197 ± 0.000335 | – | – | –
[5], x2 = 0.45 | 0.0209 ± 0.000359 | – | – | –
[5], x2 = 0.5 | 0.0218 ± 0.000359 | – | – | –
[5], x2 = 0.55 | 0.0222 ± 0.000359 | – | – | –
[5], x2 = 0.6 | 0.0222 ± 0.000359 | – | – | –
[5], x2 = 0.65 | 0.0219 ± 0.000359 | – | – | –
[5], x2 = 0.7 | 0.0212 ± 0.000359 | – | – | –
[5], x2 = 0.75 | 0.0197 ± 0.000335 | – | – | –
[5], x2 = 0.8 | 0.0174 ± 0.000335 | – | – | –
[5], x2 = 0.85 | 0.0145 ± 0.000311 | – | – | –
[5], x2 = 0.9 | 0.0107 ± 0.000287 | – | – | –
[6], x2 = 0.0811 | – | – | – | 1.39011 ± 0.00021
[6], x2 = 0.1565 | – | – | – | 1.39223 ± 0.00021
[6], x2 = 0.2425 | – | – | – | 1.39468 ± 0.00021
[6], x2 = 0.3122 | – | – | – | 1.39668 ± 0.00021
[6], x2 = 0.3557 | – | – | – | 1.39796 ± 0.00021
[6], x2 = 0.4037 | – | – | – | 1.39937 ± 0.00021
[6], x2 = 0.4406 | – | – | – | 1.40047 ± 0.00021
[6], x2 = 0.4757 | – | – | – | 1.40153 ± 0.00021
[6], x2 = 0.5107 | – | – | – | 1.40259 ± 0.00021
[6], x2 = 0.5449 | – | – | – | 1.40364 ± 0.00021
[6], x2 = 0.5933 | – | – | – | 1.40514 ± 0.00021
[6], x2 = 0.6252 | – | – | – | 1.40614 ± 0.00021
[6], x2 = 0.6681 | – | – | – | 1.4075 ± 0.00021
[6], x2 = 0.708 | – | – | – | 1.40878 ± 0.00021
[6], x2 = 0.7915 | – | – | – | 1.4115 ± 0.00021
[6], x2 = 0.8776 | – | – | – | 1.41439 ± 0.00021
[6], x2 = 0.9411 | – | – | – | 1.41658 ± 0.00021
[7], x2 = 0.0611 | – | 1698200 ± 2600 | – | –
[7], x2 = 0.1398 | – | 1685200 ± 2600 | – | –
[7], x2 = 0.2219 | – | 1670700 ± 2600 | – | –
[7], x2 = 0.3029 | – | 1656100 ± 2600 | – | –
[7], x2 = 0.3789 | – | 1641900 ± 2500 | – | –
[7], x2 = 0.457 | – | 1627300 ± 2500 | – | –
[7], x2 = 0.5376 | – | 1611700 ± 2500 | – | –
[7], x2 = 0.6153 | – | 1596800 ± 2500 | – | –
[7], x2 = 0.698 | – | 1580600 ± 2400 | – | –
[7], x2 = 0.7772 | – | 1565100 ± 2400 | – | –
[7], x2 = 0.8503 | – | 1550300 ± 2400 | – | –
[7], x2 = 0.9311 | – | 1533300 ± 2400 | – | –
